Assay results reported in patent US5712151A, “Antifungal agent” (Merck & Co., Inc., priority 1996, dated 1998).
Values after ≈ are worked out from the molar mass of the structure shown.

Legend:
Assay type in all cases: cell-based
[1] = tested on: Aspergillus fumigatus (MY5668); assay: broth microdilution assay (MIC), Aspergillus fumigatus (MY5668); settings: read-out: Minimum Inhibitory Concentration (MIC)
Protocol: (§1) The test compound was dissolved at […] in 10% DMSO and diluted 2× into the first well to achieve a concentration of 256 μg/ml at 5% DMSO in the first well. Compounds are subsequently serially diluted 2× and cell suspension is added to each well resulting in an additional 2× dilution of compound. 75 μl of said solution is delivered to each well in column 1 of a 96-well, U-bottomed microtiter plate. The compounds in column 1 were then serially diluted two-fold to yield concentrations from 64 μg/ml to 0.03 μg/ml.
(§2) The plates containing the diluted compounds were then inoculated with 75 μl/well of the appropriate microorganism and incubated for 48 hours at 35°-37° C. with MIC (minimum inhibitory concentration) determinations carried out after 24 hours of incubation (except Cryptococcus strains which are read at 48 hours). Growth and sterility controls for each organism and sterility checks for the compounds also were carried out.

[2] = tested on: panel of fungi; assay: broth microdilution assay (MIC and MFC) against a panel of fungi; settings: control compound amphotericin B
Protocol: (§3) In the microbroth dilution assay, microorganisms were selected by streaking a yeast culture on Sabouraud dextrose agar (SDA) incubating for 24-48 hours at 35°-37° C., thereafter selected 3 to 5 characteristic colonies and transferring to a fresh plate and incubating under similar conditions. From the regrowth, 3 to 5 colonies were selected and suspended in 10 milliliters of YM broth (Difco) and incubated for 4 hours at 35°-37° C. shaking at 225 rpm. The 4 hour broth cultures were adjusted optically to 86% transmission resulting in a concentration of 1-5×10^6 cfu/ml which was further diluted 1:100 in YNBD (yeast nitrogen base with 1% dextrose) to obtain a concentration of 1-5×10^4 cfu/ml for use as inocula. […]
as §2, with “Growth and sterility controls for each organism and sterility checks for the compounds also were carried out.” left out
(§4) After recording MICs at 24 hours, the microtiter plates were shaken gently to resuspend the cells. […] For Cryptococcus neoformans, SDA plates were inoculated at 48 hours after recording MICs and incubated 48 hours before reading the MFC. […]

[3] = tested on: Cryptococcus neoformans (MY2062); assay: broth microdilution assay (MIC/MFC), Cryptococcus neoformans (MY2062); settings: 48 hours
Protocol: as §3
as §2, with “Growth and sterility controls for each organism and sterility checks for the compounds also were carried out.” left out
as §4

[4] = tested on: Aspergillus fumigatus (MY4839); assay: broth microdilution assay (MIC), Aspergillus fumigatus (MY4839); settings: read-out: Minimum Inhibitory Concentration (MIC)
Protocol: as §1, §2

[5] = tested on: Cryptococcus neoformans (MY2061); assay: broth microdilution assay (MIC/MFC), Cryptococcus neoformans (MY2061); settings: 48 hours, 35°-37° C., read-out: Minimum Inhibitory Concentration (MIC)
Protocol: as §3
as §2, with “Growth and sterility controls for each organism and sterility checks for the compounds also were carried out.” left out
as §4

[6] = tested on: Candida tropicalis (MY1124); assay: broth microdilution assay (MIC/MFC), Candida tropicalis (MY1124)
Protocol: as §3
as §2, with “Growth and sterility controls for each organism and sterility checks for the compounds also were carried out.” left out
as §4

[7] = tested on: filamentous fungi (Aspergillus flavus, Fusarium oxysporum, Ustilago zeae and the like); assay: agar plate inhibition zone test with filamentous fungi; settings: methanol solutions on agar plates; 28° C. or 37° C., 24 hours
Protocol: The compound is also useful for inhibiting the growth of filamentous fungi. Such use may be illustrated in the following tests with Aspergillus flavus, Fusarium oxysporum, Ustilago zeae and the like. Inocula for filamentous fungi are prepared by scraping the surface of stock plates maintained on potato dextrose agar with a moistened sterile dacron swab. The spores and mycelia are then suspended in 10 milliliters of sterile potato dextrose broth and adjusted to 70 percent transmission at 660 nm. The samples to be tested for production of antifungal agent are applied directly to the agar plates as methanol solutions. When the sample to be tested is crude broth, it may be centrifuged prior to application. The assay plates are then incubated at either 28° C. or 37° C. for 24 hours. Following incubation, the inhibition zones are measured. Growths are also noted as to appearance.

[8] = tested on: Candida glabrata (MY1381); assay: broth microdilution assay (MIC/MFC), Candida glabrata (MY1381); settings: Nakaseomyces glabratus
Protocol: as §3
as §2, with “Growth and sterility controls for each organism and sterility checks for the compounds also were carried out.” left out
as §4

[9] = tested on: Saccharomyces cerevisiae (MY2140); assay: broth microdilution assay (MIC/MFC), Saccharomyces cerevisiae (MY2140)
Protocol: as §3
as §2, with “Growth and sterility controls for each organism and sterility checks for the compounds also were carried out.” left out
as §4

[10] = tested on: Candida krusei; assay: broth microdilution assay (MIC/MFC), Candida krusei; settings: Pichia kudriavzevii
Protocol: as §3
as §2, with “Growth and sterility controls for each organism and sterility checks for the compounds also were carried out.” left out
as §4

[11] = tested on: Candida tropicalis (MY1012); assay: broth microdilution assay (MIC/MFC), Candida tropicalis (MY1012)
Protocol: as §3
as §2, with “Growth and sterility controls for each organism and sterility checks for the compounds also were carried out.” left out
as §4

[12] = tested on: Candida albicans (MY1055); assay: broth microdilution assay (MIC/MFC), Candida albicans (MY1055)
Protocol: as §3
as §2, with “Growth and sterility controls for each organism and sterility checks for the compounds also were carried out.” left out
as §4

[13] = tested on: Candida parapsilosis (MY1010); assay: broth microdilution assay (MIC/MFC), Candida parapsilosis (MY1010); settings: Lodderomyces parapsilosis
Protocol: as §3
as §2, with “Growth and sterility controls for each organism and sterility checks for the compounds also were carried out.” left out
as §4

[14] = tested on: Candida albicans (CLY539); assay: broth microdilution assay (MIC/MFC), Candida albicans (CLY539)
Protocol: as §3
as §2, with “Growth and sterility controls for each organism and sterility checks for the compounds also were carried out.” left out
as §4

[15] = tested on: Candida guillermondii (MY1019); assay: broth microdilution assay (MIC/MFC), Candida guillermondii (MY1019)
Protocol: as §3
as §2, with “Growth and sterility controls for each organism and sterility checks for the compounds also were carried out.” left out
as §4

[16] = tested on: Candida albicans (CA2); assay: broth microdilution assay (MIC/MFC), Candida albicans (CA2)
Protocol: as §3
as §2, with “Growth and sterility controls for each organism and sterility checks for the compounds also were carried out.” left out
as §4

[17] = tested on: Candida pseudotropicalis (MY2099); assay: broth microdilution assay (MIC/MFC), Candida pseudotropicalis (MY2099); settings: Kluyveromyces marxianus
Protocol: as §3
as §2, with “Growth and sterility controls for each organism and sterility checks for the compounds also were carried out.” left out
as §4

[18] = no growth or ≤4 colonies on SDA, read-out: Minimum Fungicidal Concentration (MFC)
[19] = 24 hours, 35°-37° C., read-out: Minimum Inhibitory Concentration (MIC)

Structure (SMILES): C=CC(CCCCC)C1=C(C(=O)C2C3C(C)CC(C(=O)OC)C(O)C3C(O)C2(O)C(=O)/C=C/C)C(=O)NC1=O (centres unmarked) [Compound I]
- MIC [1]: 1 µg/mL (≈ 1.83 µM)
- effectiveness against a panel of fungi (MIC and MFC) relative to amphotericin B [2]: effective at concentrations comparable to an established antifungal agent, amphotericin B
- MIC ([3]; 35°-37° C., read-out: Minimum Inhibitory Concentration (MIC)): < 0.03 µg/mL
- MFC [3, 18]: < 0.03 µg/mL
- MIC [4]: < 0.03 µg/mL
- MIC [5]: < 0.03 µg/mL
- MIC [6, 19]: 4 µg/mL (≈ 7.33 µM)
- MFC [6, 18]: 8 µg/mL (≈ 14.7 µM)
- inhibition of growth of filamentous fungi (inhibition zones) [7]: effectively inhibit growth of the fungal organisms
- MIC [8, 19]: 16 µg/mL (≈ 29.3 µM)
- MFC [8, 18]: 32 µg/mL (≈ 58.6 µM)
- MIC ([9]; Saccharomyces cerevisiae (MY2140), 24 hours, 35°-37° C., read-out: Minimum Inhibitory Concentration (MIC)): 4 µg/mL (≈ 7.33 µM)
- MFC ([9]; Saccharomyces cerevisiae, read-out: Minimum Fungicidal Concentration (MFC)): 0.5 µg/mL (≈ 0.916 µM)
- MIC [10, 19]: 0.06 µg/mL (≈ 0.11 µM)
- MFC [10, 18]: 0.5 µg/mL (≈ 0.916 µM)
- MIC [11, 19]: 1 µg/mL (≈ 1.83 µM)
- MFC [11, 18]: 2 µg/mL (≈ 3.67 µM)
- MIC [12, 19]: < 0.03 µg/mL
- MFC [12, 18]: 0.06 µg/mL (≈ 0.11 µM)
- MIC [13, 19]: < 0.03 µg/mL
- MFC [13, 18]: < 0.03 µg/mL
- MIC [14, 19]: 0.06 µg/mL (≈ 0.11 µM)
- MFC [14, 18]: 0.125 µg/mL (≈ 0.229 µM)
- MIC [15, 19]: 2 µg/mL (≈ 3.67 µM)
- MFC [15, 18]: 16 µg/mL (≈ 29.3 µM)
- MIC [16, 19]: 0.125 µg/mL (≈ 0.229 µM)
- MFC [16, 18]: 0.25 µg/mL (≈ 0.458 µM)
- MIC [17, 19]: 2 µg/mL (≈ 3.67 µM)
- MFC [17, 18]: 4 µg/mL (≈ 7.33 µM)
